Reference: patent US6552080B1, “Fungicidal compounds having a fluorovinyl-or fluoropropenyl-oxyphenyloxime moiety and process for the preparation thereof” (Korea Research Institute of Chemical Technology, priority 1999, dated 2003)
Like-named read-outs stand apart in the source and are kept apart here.

Assays:
Rhizoctonia solani AG-1 = experiment: Fungicidal activity against Rice Sheath Blight (RSB) disease; conditions: Rice Sheath Blight
Experimental: To examine fungicidal activity of the compounds of the present invention, each of the compounds listed in Table 3 and 4 was dissolved in 10% acetone to a concentration of 250 ppm, and Tween-20 was added thereto to a concentration of 250 or 500 ppm. 50 ml of the resulting solution was sprayed on leaves of a host plant. The plant was kept at room temperature for 24 hours to let the solvent evaporate, and then, a pathogenic fungus was inoculated thereonto. The plant was held in a humidity chamber for 24 hours, transferred to an plant growth room kept at 20 to 27° C. and a relative humidity of 60 to 80% and kept to induce disease. […] This procedure was repeated twice for each test. 10% Acetone solution containing 250 ppm of Tween-20 was used as a control.
The fungicidal activity of the compound of the present invention is repressed by a control value (C.V.) calculated as; [formula]
Rhizoctonia solani AG-1 was cultured on a PDA medium (potato 200 g, dextrose 20 g, agar 20 g and distilled water 1 ? for 3 days and the agar disc(diameter 0.6 cm) was inoculated and cultured on sterilized wheat bran medium in a 1 L bottle at 26 to 28° C. for 7 days. A mycelial mass was ground using a homogenizer, inoculated uniformly on soil of a pot wherein a Nakdong rice plant having 2 or 3 leaves and an height of 5 cm grew, and kept in humidity polyvinyl chamber for 5 days to induce RSB. L.A. on a leaf sheath was measured to calculate an C.V.

Botrytis cinerae = experiment: Fungicidal activity against Cucumber Gray Mold Rot (CGM) disease; assay type: in vivo; conditions: Cucumber Gray Mold Rot; concentration 50 ppm
Experimental: Botrytis cinerae, which was isolated from cucumber infected thereby, was inoculated on a PDA agar medium and cultured under a 12L/12D cycle at 25° C. for 15 days to form spore. The spores were scraped, filtered through a gauze and then suspended in potato dextrose liquid medium at a concentration of 1×10^6 spore/ml. The spore suspension was sprayed on a cucumber plant having one leaf. The cucumber plant was held in a humidified room at 20° C. for 3 days. L.A. on a leaf was measured to calculate an C.V.

[1] = system: Pyricularia oryzae Carvara KA301; assay type: in vivo; conditions: Rice Blast
Puccinia recondita = experiment: Fungicidal activity against Wheat Leaf Rust (WLR) disease; assay type: in vivo; conditions: Wheat Leaf Rust
Erysiphae graminis = experiment: Fungicidal activity against Barley Powdery Mildew (BPM) disease; assay type: in vivo; conditions: Barley Powdery Mildew
Phytophthora infestans = assay type: in vivo; conditions: Tomato Late Blight

SMILES	RSB (Fungicidal Activities, C.V.) (Rhizoctonia solani AG-1; concentration 50 ppm) [%]	CGM (Fungicidal Activities, C.V.) (Botrytis cinerae) [%]	RCV (Fungicidal Activities, C.V.) ([1]; concentration 2 ppm) [%]	RCV (Fungicidal Activities, C.V.) ([1]; concentration 50 ppm) [%]	WLR (Fungicidal Activities, C.V.) (Puccinia recondita; concentration 2 ppm) [%]	WLR (Fungicidal Activities, C.V.) (Puccinia recondita; concentration 50 ppm) [%]	BPM (Fungicidal Activities, C.V.) (Erysiphae graminis; concentration 2 ppm) [%]	BPM (Fungicidal Activities, C.V.) (Erysiphae graminis; concentration 50 ppm) [%]	TLB (Fungicidal Activities, C.V.) (Phytophthora infestans; concentration 50 ppm) [%]	RSB (Fungicidal Activities, C.V.) (Rhizoctonia solani AG-1; concentration 2 ppm) [%]	TLB (Fungicidal Activities, C.V.) (Phytophthora infestans; concentration 2 ppm) [%]	RCV (Fungicidal Activities, C.V.) ([1]; concentration 10 ppm) [%]	WLR (Fungicidal Activities, C.V.) (Puccinia recondita; concentration 10 ppm) [%]	BPM (Fungicidal Activities, C.V.) (Erysiphae graminis; concentration 10 ppm) [%]
CNC(=O)C(=NOC)c1ccccc1CON=Cc1cccc(OC(F)=Cc2cccc(Cl)c2)c1 [Compound 38]	64	0	97	100	99	100	87	100	0					
CON=C(C(=O)OC)c1ccccc1CON=Cc1cccc(OC(F)=Cc2ccc(F)cc2)c1 [Compound 27]	25	0		100		86		91	69					
CON=C(C(=O)OC)c1ccccc1CON=Cc1cccc(OC(F)=Cc2ccc3c(c2)OCO3)c1 [Compound 29]	35	0	93	100	96	88	41	80	84	20	78			
CCc1ccc(C=C(F)Oc2cccc(C=NOCc3ccccc3C(=NOC)C(=O)NC)c2)cc1 [Compound 33]	17	0	97	96	10	96	0	100	0					
CCc1ccc(C=C(F)Oc2cccc(C(C)=NOCc3ccccc3C(=COC)C(=O)OC)c2)cc1 [Compound 45]	65	17	41	97	95	100	99	100	85			93	100	100
CNC(=O)C(=NOC)c1ccccc1CON=C(C)c1cccc(OC(F)=Cc2cccc(C)c2)c1 [Compound 78]	90	82	100	100	100	100	100	100	94	45	50			
CNC(=O)C(=COC)c1ccccc1CON=C(C)c1cccc(OC(F)=Cc2cccc(Cl)c2)c1 [Compound 62]	0	25	92	96	83	99	0	100	0					
